Source: US9346815B2, “5-chloro-2-difluoromethoxyphenyl pyrazolopyrimidine compounds, compositions and methods of use thereof” (Genentech, Inc., priority 2014, dated 2016)
Where a name gives a salt, the structure may show the parent alone.

What was measured:
[1] = target: isolated recombinant JAK1 kinase domain (Homo sapiens (Human), UniProt P23458); assay: JAK1 enzyme assay (Caliper LabChip, peptide phosphorylation); type: biochemical; settings: isolated recombinant JAK1 kinase domain, 25 μM ATP
isolated recombinant JAK1 kinase domain, sequence (P23458 875-1153): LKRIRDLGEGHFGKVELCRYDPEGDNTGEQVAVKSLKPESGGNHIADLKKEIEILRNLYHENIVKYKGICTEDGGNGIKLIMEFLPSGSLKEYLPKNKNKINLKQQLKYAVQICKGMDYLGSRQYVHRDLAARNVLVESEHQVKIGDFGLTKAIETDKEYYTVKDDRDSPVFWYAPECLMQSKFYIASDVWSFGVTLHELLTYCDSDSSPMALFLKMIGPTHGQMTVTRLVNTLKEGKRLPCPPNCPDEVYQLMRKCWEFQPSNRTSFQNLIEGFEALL

[2] = target: isolated recombinant JAK2 kinase domain (Homo sapiens (Human), UniProt O60674); assay: JAK2 enzyme assay (Caliper LabChip, peptide phosphorylation); type: biochemical; settings: 25 μM ATP
isolated recombinant JAK2 kinase domain, sequence (O60674 849-1124): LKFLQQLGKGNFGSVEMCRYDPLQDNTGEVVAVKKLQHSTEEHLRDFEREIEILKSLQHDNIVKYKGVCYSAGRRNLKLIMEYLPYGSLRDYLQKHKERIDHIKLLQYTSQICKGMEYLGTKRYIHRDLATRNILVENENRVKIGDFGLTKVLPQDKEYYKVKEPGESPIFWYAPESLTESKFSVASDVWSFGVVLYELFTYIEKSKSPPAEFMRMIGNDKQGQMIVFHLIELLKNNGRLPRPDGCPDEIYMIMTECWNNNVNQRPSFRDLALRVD

[3] = test system: JAK1-dependent STAT6 phosphorylation downstream of IL-13 stimulation in TF-1 human erythroleukemia cells; assay: JAK1 pathway assay in TF-1 cells (IL-13-pSTAT6, MSD); type: cell-based; settings: Homo sapiens, TF-1, TF-1 cells, read-out: IL13-pSTAT6 EC50_TF-1
In short: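 BEAS-2B: complete growth medium, compound 1 hr at 37° C. TF-1: GM-CSF-starved overnight, serum-free OptiMEM, compound 30 min.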

Row | Ki [1] | Ki [2] | EC50 [3] | SMILES
1 | 0.7 nM | 0.81 nM | 8.6 nM | CCOC(=O)N1CCC(CN2C[C@@H]3CN(C(=O)Cn4cc(NC(=O)c5cnn6cccnc56)c(-c5cc(Cl)ccc5OC(F)F)n4)C[C@@H]3C2)CC1 [Example 23, ethyl 4-[[(3aS,6aR)-5-[2-[3-[5-chloro-2-(difluoromethoxy)phenyl]-4-(pyrazolo[1,5-a]pyrimidine-3-carbonylamino)pyrazol-1-yl]acetyl]-1,3,3a,4,6,6a-hexahydropyrrolo[3,4-c]pyrrol-2-yl]methyl]piperidine-1-carboxylate]
2 | 1.22 nM | 1.07 nM | 7.3 nM | CCCCN(C)C1CCN(c2nc(-c3cc(Cl)ccc3OC(F)F)c(NC(=O)c3cnn4cccnc34)s2)CC1 [Example 199, N-[2-[4-[butyl(methyl)amino]-1-piperidyl]-4-[5-chloro-2-(difluoromethoxy)phenyl]thiazol-5-yl]pyrazolo[1,5-a]pyrimidine-3-carboxamide]
3 | 0.69 nM | 0.67 nM | 3.1 nM | CN1CC[C@H]2CN(C(=O)Cn3cc(NC(=O)c4cnn5cccnc45)c(-c4cc(Cl)ccc4OC(F)F)n3)CC[C@H]21 [Example 42, N-[1-[2-[(3aS,7aR)-1-methyl-3,3a,4,6,7,7a-hexahydro-2H-pyrrolo[3,2-c]pyridin-5-yl]-2-oxo-ethyl]-3-[5-chloro-2-(difluoromethoxy)phenyl]pyrazol-4-yl]pyrazolo[1,5-a]pyrimidine-3-carboxamide]
4 | 0.52 nM | 1.15 nM | 26.9 nM | O=C(Nc1cn(CC(=O)N2CCC(N3Cc4ccc(Cl)cc4C3)CC2)nc1-c1cc(Cl)ccc1OC(F)F)c1cnn2cccnc12 [Example 135, N-[3-[5-chloro-2-(difluoromethoxy)phenyl]-1-[2-[4-(5-chloroisoindolin-2-yl)-1-piperidyl]-2-oxo-ethyl]pyrazol-4-yl]pyrazolo[1,5-a]pyrimidine-3-carboxamide]
5 | 1.23 nM | 0.13 nM | 22.3 nM | O=C(Nc1cn(C2CCN(CCCN3CCS(=O)(=O)CC3)CC2)nc1-c1cc(Cl)ccc1OC(F)F)c1cnn2cccnc12 [Example 161, N-[3-[5-chloro-2-(difluoromethoxy)phenyl]-1-[1-[3-(1,1-dioxo-1,4-thiazinan-4-yl)propyl]-4-piperidyl]pyrazol-4-yl]pyrazolo[1,5-a]pyrimidine-3-carboxamide]
6 | 0.85 nM | 0.72 nM | 21 nM | O=C(Nc1cn(CC(=O)N2C[C@H]3CN(CCCOC(=O)C4CCC4)C[C@H]3C2)nc1-c1cc(Cl)ccc1OC(F)F)c1cnn2cccnc12 [Example 55, 3-[(3aS,6aR)-5-[2-[3-[5-chloro-2-(difluoromethoxy)phenyl]-4-(pyrazolo[1,5-a]pyrimidine-3-carbonylamino)pyrazol-1-yl]acetyl]-1,3,3a,4,6,6a-hexahydropyrrolo[3,4-c]pyrrol-2-yl]propyl cyclobutanecarboxylate]
7 | 2.93 nM | 2.92 nM | 10.5 nM | CN(C)CCC1CCN(c2nc(-c3cc(Cl)ccc3OC(F)F)c(NC(=O)c3cnn4cccnc34)s2)CC1 [Example 191, N-[4-[5-chloro-2-(difluoromethoxy)phenyl]-2-[4-[2-(dimethylamino)ethyl]-1-piperidyl]thiazol-5-yl]pyrazolo[1,5-a]pyrimidine-3-carboxamide]
8 | 0.6 nM | 0.51 nM | 210 nM | Nc1nn2cccnc2c1C(=O)Nc1cn(CC(=O)N2CCC(N3CC[C@H](O)C3)CC2)nc1-c1cc(Cl)ccc1OC(F)F [Example 77, 2-amino-N-[3-[5-chloro-2-(difluoromethoxy)phenyl]-1-[2-[4-[(3S)-3-hydroxypyrrolidin-1-yl]-1-piperidyl]-2-oxo-ethyl]pyrazol-4-yl]pyrazolo[1,5-a]pyrimidine-3-carboxamide]
9 | 0.75 nM | 1.15 nM | 149 nM | O=C(Nc1cn(CC(=O)N2CCC(NCCc3ccc(O)cc3)CC2)nc1-c1cc(Cl)ccc1OC(F)F)c1cnn2cccnc12 [Example 91, N-[3-[5-chloro-2-(difluoromethoxy)phenyl]-1-[2-[4-[2-(4-hydroxyphenyl)ethyl-amino]-1-piperidyl]-2-oxo-ethyl]pyrazol-4-yl]pyrazolo[1,5-a]pyrimidine-3-carboxamide]
10 | 0.27 nM | 0.17 nM | 24.9 nM | CN(Cc1cccc(Br)c1)C1CCN(C(=O)Cn2cc(NC(=O)c3cnn4cccnc34)c(-c3cc(Cl)ccc3OC(F)F)n2)CC1 [Example 122, N-[1-[2-[4-[(3-bromophenyl)methyl-methyl-amino]-1-piperidyl]-2-oxo-ethyl]-3-[5-chloro-2-(difluoromethoxy)phenyl]pyrazol-4-yl]pyrazolo[1,5-a]pyrimidine-3-carboxamide]
11 | 0.66 nM | 1.61 nM | 121 nM | CN1C[C@H]2CCN(C(=O)Cn3cc(NC(=O)c4cnn5cccnc45)c(-c4cc(Cl)ccc4OC(F)F)n3)C[C@H]2C1 [Example 25, N-[1-[2-[(3aR,7aS)-2-methyl-3,3a,4,6,7,7a-hexahydro-1H-pyrrolo[3,4-c]pyridin-5-yl]-2-oxo-ethyl]-3-[5-chloro-2-(difluoromethoxy)phenyl]pyrazol-4-yl]pyrazolo[1,5-a]pyrimidine-3-carboxamide]
12 | 1.01 nM | 0.69 nM | 23.6 nM | O=C(Nc1sc(N2CCN(CC3CC3)CC2)nc1-c1cc(Cl)ccc1OC(F)F)c1cnn2cccnc12 [Example 207, N-[4-[5-chloro-2-(difluoromethoxy)phenyl]-2-[4-(cyclopropylmethyl)piperazin-1-yl]thiazol-5-yl]pyrazolo[1,5-a]pyrimidine-3-carboxamide]
13 | 0.72 nM | 1.6 nM | 25.2 nM | CN(CCc1ccccn1)C1CCN(C(=O)Cn2cc(NC(=O)c3cnn4cccnc34)c(-c3cc(Cl)ccc3OC(F)F)n2)CC1 [Example 86, N-[3-[5-chloro-2-(difluoromethoxy)phenyl]-1-[2-[4-[methyl-[2-(2-pyridyl)ethyl]amino]-1-piperidyl]-2-oxo-ethyl]pyrazol-4-yl]pyrazolo[1,5-a]pyrimidine-3-carboxamide]
14 | 0.84 nM | 0.78 nM | 11.1 nM | CCN1C[C@@H]2CN(C(=O)Cn3cc(NC(=O)c4cnn5cccnc45)c(-c4cc(Cl)ccc4OC(F)F)n3)C[C@@H]2C1 [Example 5, Cis pyrazolo[1,5-a]pyrimidine-3-carboxylic acid {3-(5-chloro-2-difluoromethoxyphenyl)-1-[2-(5ethyl-hexahydro-pyrrolo[3,4-c]pyrrol-2-yl)-2-oxoethyl]-1H-pyrazol-4-yl}amide hydrochloride]
15 | 0.63 nM | 1.8 nM | 14.9 nM | CN(Cc1ccc(Cl)cc1)C1CCN(C(=O)Cn2cc(NC(=O)c3cnn4cccnc34)c(-c3cc(Cl)ccc3OC(F)F)n2)CC1 [Example 126, N-[3-[5-chloro-2-(difluoromethoxy)phenyl]-1-[2-[4-[(4-chlorophenyl)methyl-methyl-amino]-1-piperidyl]-2-oxo-ethyl]pyrazol-4-yl]pyrazolo[1,5-a]pyrimidine-3-carboxamide]
16 | 1.25 nM | 0.35 nM | 38.4 nM | Nc1nn2cccnc2c1C(=O)Nc1cn(C2CCN(CCOCc3ccccc3)CC2)nc1-c1cc(Cl)ccc1OC(F)F [Example 180, 2-amino-N-[1-[1-(2-benzyloxyethyl)-4-piperidyl]-3-[5-chloro-2-(difluoromethoxy)phenyl]pyrazol-4-yl]pyrazolo[1,5-a]pyrimidine-3-carboxamide]
17 | 1.1 nM | 1.82 nM | 15.8 nM | CN(CC(F)(F)F)C1CCN(C(=O)C2CCN(c3nc(-c4cc(Cl)ccc4OC(F)F)c(NC(=O)c4cnn5cccnc45)s3)CC2)CC1 [Example 202, N-[4-[5-chloro-2-(difluoromethoxy)phenyl]-2-[4-[4-[methyl(2,2,2-trifluoroethyl)amino]piperidine-1-carbonyl]-1-piperidyl]thiazol-5-yl]pyrazolo[1,5-a]pyrimidine-3-carboxamide]
18 | 0.45 nM | 0.09 nM | 15 nM | CS(=O)(=O)CCCN1CCC(n2cc(NC(=O)c3c(N)nn4cccnc34)c(-c3cc(Cl)ccc3OC(F)F)n2)CC1 [Example 177, 2-amino-N-[3-[5-chloro-2-(difluoromethoxy)phenyl]-1-[1-(3-methylsulfonylpropyl)-4-piperidyl]pyrazol-4-yl]pyrazolo[1,5-a]pyrimidine-3-carboxamide]
19 | 0.3 nM | 0.23 nM | 118 nM | CN(Cc1ccc(C(C)(C)C)cc1)C1CCN(C(=O)Cn2cc(NC(=O)c3cnn4cccnc34)c(-c3cc(Cl)ccc3OC(F)F)n2)CC1 [Example 120, N-[1-[2-[4-[(4-tert-butylphenyl)methyl-methyl-amino]-1-piperidyl]-2-oxo-ethyl]-3-[5-chloro-2-(difluoromethoxy)phenyl]pyrazol-4-yl]pyrazolo[1,5-a]pyrimidine-3-carboxamide]
20 | 0.67 nM | 1.77 nM | 16.5 nM | CN(CCC1CCCCC1)C1CCN(C(=O)Cn2cc(NC(=O)c3cnn4cccnc34)c(-c3cc(Cl)ccc3OC(F)F)n2)CC1 [Example 101, N-[3-[5-chloro-2-(difluoromethoxy)phenyl]-1-[2-[4-[2-cyclohexyl-ethyl(methyl)amino]-1-piperidyl]-2-oxo-ethyl]pyrazol-4-yl]pyrazolo[1,5-a]pyrimidine-3-carboxamide]
